# Measured values taken from article PMC7586935 (Journal of Clinical Pharmacology, 2020).
# Legend:
# healthy volunteers [1] = test: Safety assessment: treatment-emergent adverse events; type: in vivo, human; settings: moxifloxacin 400 mg, one subject
# [2] = test system: QT/QTc interval of healthy volunteers; test: Concentration-QTc
# healthy volunteers [3] = test: ECG morphological analyses; type: in vivo, human; settings: moxifloxacin 400 mg, n = 18
# [4] = Plasma pharmacokinetics after single oral dose; type: in vivo; settings: human, oral, 400 mg
# healthy volunteers [5] = test: ECG outlier analyses; type: in vivo, human; settings: moxifloxacin 400 mg, n = 18
compound,measurement,setting,value
COc1c(N2C[C@@H]3CCCN[C@@H]3C2)c(F)cc2c(=O)c(C(=O)O)cn(C3CC3)c12 [Moxifloxacin],"Somnolence, frequency of subjects",healthy volunteers [1],5.6%
same,"Predicted Mean Effect at Mean Cmax (placebo-corrected change from baseline QTcF, ΔΔQTcF)","[2]; moxifloxacin 400 mg, mean Cmax 2758.3 ng/mL",15.2 ms
same,Slope of placebo-adjusted change from baseline QTcF vs plasma concentration,"[2]; moxifloxacin plasma concentration, assay sensitivity",4.24 ms/[μg/mL]
same,New ST‐segment depression changes,healthy volunteers [3],1 (6) n (%)
same,New ST‐segment elevation changes,healthy volunteers [3],0 n (%)
same,New atrial fibrillation,healthy volunteers [3],0 n (%)
same,New atrial flutter,healthy volunteers [3],0 n (%)
same,New second‐degree heart block,healthy volunteers [3],0 n (%)
same,New third‐degree heart block,healthy volunteers [3],0 n (%)
same,AUC,[4],24700 ± 5240 ng·h/mL
same,Cmax,[4],2760 ± 559 ng/mL
same,Tmax,[4],1 h
same,Heart rate: Bradycardic outliers,healthy volunteers [5],0 n (%)
same,Heart rate: Tachycardic outliers,healthy volunteers [5],1 (6) n (%)
same,PR interval: Outliers,healthy volunteers [5],0 n (%)
same,QRS interval: Outliers,healthy volunteers [5],0 n (%)
same,QTcF >30‐60 ms inc change from baseline,healthy volunteers [5],2 (11) n (%)
same,QTcF >60 ms inc change from baseline,healthy volunteers [5],0 n (%)
same,QTcF New >480 ms,healthy volunteers [5],0 n (%)
same,QTcF New >500 ms,healthy volunteers [5],0 n (%)
